# Data reported in paper PMC4822313, “Modulating the import of medium-chain alkanes in E. coli through tuned expression of FadL” (Journal of Biological Engineering, 2016).
# Target: T1, AlkBGT alkane monooxygenase complex (Ectopseudomonas oleovorans, UniProt P12691)
# T1 construct: gene alkB; inner membrane AlkB with rubredoxin AlkG and reductase AlkT; expressed in E. coli from pGEc41; with Rubredoxin-2; Rubredoxin-NAD(+) reductase
# T1 sequence (P12691 1-401): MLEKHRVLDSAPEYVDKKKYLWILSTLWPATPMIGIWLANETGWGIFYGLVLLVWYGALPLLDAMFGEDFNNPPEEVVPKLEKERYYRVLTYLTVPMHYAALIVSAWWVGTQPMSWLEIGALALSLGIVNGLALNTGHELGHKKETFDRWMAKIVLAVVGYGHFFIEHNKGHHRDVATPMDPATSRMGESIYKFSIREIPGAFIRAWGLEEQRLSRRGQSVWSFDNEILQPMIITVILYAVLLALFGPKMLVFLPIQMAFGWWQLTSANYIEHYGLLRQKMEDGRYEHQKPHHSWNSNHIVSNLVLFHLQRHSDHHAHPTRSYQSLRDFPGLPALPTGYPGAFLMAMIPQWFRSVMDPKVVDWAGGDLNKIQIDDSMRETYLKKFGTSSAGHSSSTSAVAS
# Test: whole-cell oxidation, GC-FID of products
# Type: cell-based
# Conditions: 30 % (v/v) octane, 37 °C, E. coli with pGEc41
smiles,measurement,value
CCCCCCCCO [1-octanol],"whole-cell oxidation, GC-FID of products",The synthesis of 1-octanol and 1-octanal is attributed to AlkB
